Results on two compounds are retold here after PMC11249953, “c-KIT inhibitors reduce pathology and improve behavior in the Tg(SwDI) model of Alzheimer’s disease” (Life Science Alliance, 2024).

Structures are written as SMILES. Several values for one entry are separate records, joined by “and”; a condition that tells them apart may be missing. Equal entries are not always repeated.

Test [1] concerns phospho-c-KIT. In words: Western blot for phospho-c-KIT in brain lysates. As to conditions: TgAPP mice; BK40143 5 mg/kg, BK40197 45 mg/kg; vs DMSO. The test is classed as in vivo, mouse. The text has this: c-KIT is responsible for mast cell development and homeostasis ([Lake et al, 1978]; [Linnekin, 1999]; [Kitamura et al, 2006]). TKs are the central driving force for processes leading to mast cell activation ([Parravicini et al, 2002]; [Gomez et al, 2005]). Multiple receptors are capable of mediating or modifying mast cell activation ([Kraft & Kinet, 2007]; [Kuehn & Gilfillan, 2007]), the major receptor responsible being FcεRI, the high affinity receptor for immunoglobulin E (IgE) ([Rivera & Gilfillan, 2006]). Mast cells are tissue-resident cells of hematopoietic lineage which are derived from CD13^+CD34^+KIT(CD117)^+ bone marrow pluripotent progenitors ([Kirshenbaum et al, 1999]). Although mast cells play an important role in the innate immune system ([Marshall, 2004]; [Galli et al, 2005]), these cells are also responsible for the detrimental exaggerated reactions to antigen ([Galli et al, 2008]) that follow the release of potent inflammatory mediators as a consequence of receptor-mediated mast cell activation ([Metcalfe et al, 1997]). The progression of these cells to fully mature mast cells is dependent on c-KIT activation which occurs because of stem cell factor-induced c-KIT dimerization and auto-phosphorylation ([Kirshenbaum et al, 1999]). […]
Brain hemispheres from treated and untreated animals were lysed in 1x STEN buffer and protein concentrations were measured via BCA assay. […]
For orientation: Immunoblotting shows a protein as a band on a membrane.

The test system of test [2] is mice. In words: Novel object recognition, source data sheet NOR (mouse line not given). It is filed as in vivo. Set-up: key to Probe: DI (Discrimination Index: Novel / Total) / Familiarization: DI / Familiarization: DI, group mean / Familiarization DI: DI = novel-object exploration time / total exploration time of both objects; Familiarization: Total / Familiarization B / Familiarization Total: unit not given here. As to conditions: for Probe DI: Discrimination Index: Novel / Total; for Probe DI / Familiarization Total / Familiarization B / Familiarization DI / Probe Familiar / Probe Total / Probe Novel / % Difference: one value per mouse; for Familiarization Total / Familiarization B / Familiarization DI / Probe Familiar / Probe Total / Probe Novel: novel object recognition; for Familiarization Total: A + B; for Familiarization B: object B; for Probe Familiar: familiar object; for Probe Total: novel + familiar; for Probe Novel: novel object; for % Difference: probe DI minus familiarization DI, Exclude trials where mice explored <1s; for Familiarization: A (exploration of object A) / Familiarization: B (exploration of object B) / Familiarization: DI / Familiarization: Total / Probe: DI (Discrimination Index: Novel / Total) / Probe: Familiar / Probe: Novel / Probe: Total: individual mice. How it is done: Novel object recognition was carried out using a 50 × 50 cm arena with clear walls covered by brown construction paper. Mice were habituated to the room for 30 min each day, before being allowed to freely explore the arena for 5 min two times, for 3 d. On the 4th d, two identical objects were placed in the arena in opposite adjacent corners, 10 cm from the corner of the arena. Mice were placed along the wall opposite from the objects and allowed to freely explore for 10 min. Approach behavior (extending nose toward the object) toward both objects was recorded manually using handheld stop watches and compared with ensure there was no preference for either neutral object. For the probe trial, one object was removed and replaced with a novel object, and mice were again allowed to freely explore for 10 min, with approach time towards the novel and familiar objects recorded. Trials in which the mice explored for less than 1 s were excluded. Discrimination index was calculated by dividing time spent exploring the novel object by total time exploring both objects and was compared for treated versus control animals.

For the compound `Cc1cccc(-c2cc3nccc(N4CCOCC4)c3s2)c1` [BK40197], the “phospho-c-KIT levels in brain (Western blot)” value in test [1] is reported as “similar, albeit not statistically significant, trend”. In addition, in test [2] (listed as 197), the “Probe DI” value was 0.7189 and 0.4276 and 0.6036 and 0 and 0.3497 and 0.7629 and 0.5645; the “Familiarization Total” value was 6.07 and 3.17 and 0.72 and 1.59 and 2.09 and 99.73 and 4.98 and 1.54 and 46.43; the “Familiarization B” value was 4.54 and 2.11 and 0 and 0.44 and 2.09 and 67.09 and 3.73 and 0.91 and 31.96; the “Familiarization DI” value is 0.2521 and 0.3344 and 1 and 0.7233 and 0 and 0.3273 and 0.251 and 0.4091 and 0.3117. Also, in test [2] (listed as 197), the “Probe Familiar” value was 3.8 and 3.44 and 1.78 and 0.31 and 0 and 59.03 and 0.92 and 1.62; the “Probe Total” value was 13.52 and 6.01 and 4.49 and 0.31 and 0 and 90.78 and 3.88 and 3.72; the “Probe Novel” value is 9.72 and 2.57 and 2.71 and 0 and 31.75 and 2.96 and 2.1; the “% Difference” value was 46.6876% and 9.324% and -39.6437% and 2.2463% and 51.1883% and 15.5425%.
`Cc1cccc(-c2cc3nccc(Nc4ccccc4)c3s2)c1` [BK40143]: the “phospho-c-KIT levels in brain (Western blot)” value in test [1] was “significant decrease in phospho-c-KIT levels”. Further, in test [2] (2.5mg/kg), the “Familiarization: DI, group mean” value is recorded as 0.4194 and the “Probe: DI, group mean” value is 0.6322. Moreover, in test [2] (2.5mg/kg, listed as 143), the “Familiarization: A (exploration of object A)” value was 79.74 and 23.94 and 6.51 and 4.1 and 1.73 and 91.39 and 3.94; the “Familiarization: B (exploration of object B)” value is 36.19 and 20.07 and 19.62 and 23.82 and 2.46 and 58.89 and 9.8; the “Familiarization: DI” value is 0.6878 and 0.544 and 0.2491 and 0.1468 and 0.4129 and 0.6081 and 0.2868; the “Familiarization: Total” value was 115.93 and 44.01 and 26.13 and 27.92 and 4.19 and 150.28 and 13.74. Besides, in test [2] (2.5mg/kg, listed as 143), the “Probe: DI (Discrimination Index: Novel / Total)” value was 0.6527 and 0.5219 and 0.7012 and 0.6866 and 0 and 0.6684 and 0.5624; the “Probe: Familiar” value was 12.56 and 26.64 and 26.04 and 10.96 and 0.71 and 19.02 and 21.52; the “Probe: Novel” value was 23.6 and 29.08 and 61.12 and 24.01 and 0 and 38.34 and 27.66; the “Probe: Total” value is 36.16 and 55.72 and 87.16 and 34.97 and 0.71 and 57.36 and 49.18. For the same compound, in test [2] (5.0mg/kg), the “Familiarization: DI, group mean” value came out at 0.4517 and the “Probe: DI, group mean” value turned out to be 0.5431. In addition, in test [2] (5.0mg/kg, listed as 143), the “Familiarization: A (exploration of object A)” value was 6.57 and 57.74 and 55.12 and 0 and 31.22 and 2.26 and 24.68 and 3.81; the “Familiarization: B (exploration of object B)” value is 6.09 and 45.42 and 59.49 and 0 and 28.62 and 34.43 and 1.4 and 35.06 and 3.14; the “Familiarization: DI” value is 0.519 and 0.5597 and 0.4809 and 0 and 0.4756 and 0.6175 and 0.4131 and 0.5482; the “Familiarization: Total” value is 12.66 and 103.16 and 114.61 and 0 and 28.62 and 65.65 and 3.66 and 59.74 and 6.95. In test [2] (5.0mg/kg, listed as 143), the “Probe: DI (Discrimination Index: Novel / Total)” value was 0.5491 and 0.4762 and 0.6019 and 0.4523 and 0.4543 and 0.6392 and 0.6671 and 0.5538 and 0.5229 and 0.5147; the “Probe: Familiar” value is 31.58 and 54.9 and 31.99 and 22.78 and 6.63 and 10.02 and 2.44 and 2.49 and 12.81 and 27.34; the “Probe: Novel” value was 38.46 and 49.91 and 48.36 and 18.81 and 5.52 and 17.75 and 4.89 and 3.09 and 14.04 and 29; the “Probe: Total” value was 70.04 and 104.81 and 80.35 and 41.59 and 12.15 and 27.77 and 7.33 and 5.58 and 26.85 and 56.34. In test [2] (listed as 143), the “Probe DI” value was 0.8287 and 0.6842 and 0.7687 and 1 and 0 and 0.615 and 0.4318 and 0.5747 and 0.1499 and 0.6797; the “Familiarization Total” value is 4.02 and 1.72 and 5.39 and 2.97 and 7.23 and 16.69 and 3.49 and 11.99 and 18.68 and 5.99; the “Familiarization B” value is 4.02 and 0.91 and 0.51 and 1.41 and 5.2 and 7.29 and 2.89 and 7.23 and 11.16 and 3.62; the “Familiarization DI” value is 0 and 0.4709 and 0.9054 and 0.5253 and 0.2808 and 0.5632 and 0.1719 and 0.397 and 0.4026 and 0.3957. Besides, in test [2] (listed as 143), the “Probe Familiar” value is 0.62 and 0.78 and 0.31 and 0 and 0.83 and 2.41 and 0.5 and 20.09 and 39.82 and 2.04; the “Probe Total” value is 3.62 and 2.47 and 1.34 and 5.82 and 0.83 and 6.26 and 0.88 and 47.24 and 46.84 and 6.37; the “Probe Novel” value is 3 and 1.69 and 1.03 and 5.82 and 0 and 3.85 and 0.38 and 27.15 and 7.02 and 4.33; the “% Difference” value is 82.8729% and 21.328% and -13.6724% and 47.4747% and 5.18% and 17.7727% and 28.4089%.
